Test results taken from the NIST ThermoML archive (doi:10.1016/j.jct.2011.02.018).

Assay: xn = mol fraction of the nth substance listed
Conditions: 101 kPa, Liquid; for viscosity: Concentric cylinders viscometry; for mass density: Vibrating tube method

COC(C)(C)C [2-methoxy-2-methylpropane] + CCCCCO
Conditions	mass density, 303.15 K [kg/m3]	mass density, 308.15 K [kg/m3]	viscosity, 303.15 K [mPa·s]	viscosity, 308.15 K [mPa·s]
x1 = 0.0105	806.55	802.82	2.932	2.562
x1 = 0.0197	805.95	802.2	2.852	2.493
x1 = 0.0321	805.15	801.39	2.743	2.406
x1 = 0.0401	804.63	800.86	2.675	2.344
x1 = 0.0506	803.93	800.15	2.588	2.274
x1 = 0.0595	803.35	799.56	2.517	2.214
x1 = 0.0699	802.67	798.87	2.438	2.149
x1 = 0.0811	801.94	798.11	2.357	2.079
x1 = 0.0901	801.33	797.5	2.294	2.028
x1 = 0.1042	800.41	796.55	2.214	1.949
x1 = 0.1506	797.3	793.39	1.927	1.716
x1 = 0.2078	793.4	789.41	1.648	1.473
x1 = 0.252	790.33	786.28	1.457	1.312
x1 = 0.301	786.88	782.75	1.281	1.159
x1 = 0.3492	783.41	779.21	1.135	1.033
x1 = 0.3996	779.75	775.48	1	0.9139
x1 = 0.4577	775.42	771.06	0.8735	0.8008
x1 = 0.4985	772.36	767.93	0.7962	0.7313
x1 = 0.5512	768.33	763.81	0.7102	0.6515
x1 = 0.5999	764.55	759.95	0.6401	0.5895
x1 = 0.6506	760.51	755.83	0.5765	0.5309
x1 = 0.6986	756.67	751.9	0.5215	0.4812
x1 = 0.7451	752.92	748.06	0.4765	0.4421
x1 = 0.7976	748.39	743.42	0.4332	0.4011
x1 = 0.8534	743.59	738.51	0.3868	0.3584
x1 = 0.898	739.63	734.47	0.3594	0.3315
x1 = 0.9098	738.59	733.41	0.3526	0.3257
x1 = 0.9195	737.72	732.53	0.3467	0.3192
x1 = 0.9289	736.85	731.64	0.3396	0.3137
x1 = 0.9419	735.67	730.43	0.3307	0.3102
x1 = 0.9495	734.96	729.72	0.3276	0.3054
x1 = 0.9594	734.04	728.78	0.3227	0.3007
x1 = 0.9688	733.17	727.88	0.317	0.2966
x1 = 0.9792	732.2	726.89	0.3104	0.2916
x1 = 0.9902	731.16	725.83	0.3035	0.2863
